Marks after values point to notes of the source that are not given here.
Columns and labels:
[1] = Example 6 feeding test in growing piglets, growth and diarrhoea; format: in vivo
Procedure: An amount of a product obtained from baking yeast by hydrolytic treatment, was added to the fodder of growing piglets. The fodder for the reference group contained Olaqvindox chemotherapeutic substance, 50 mg/kg. In the fodder for the yeast group, instead of Olaqvindox, yeast fraction was added in an amount of 0.5%.

[2] = Example 7 feeding test in growing pigs; format: in vivo; conditions: Olagvindox 50 ppm, 33 test days
Procedure: An amount of a product obtained from baking yeast by hydrolytic treatment, was added to the fodder of growing pigs. The measurement was implemented as in the preceding example.

[3] = Example 5 feeding test, development of piglets; format: in vivo, pigs
Source text: In this test, four equal groups of pigs were fed with the following fodders:
Group 1: basic fodder (reference)
Group 2: basic fodder+40 ppm Avilamysine
Group 3: basic fodder+product prepared from yeast by hydrolytic treatment, in an amount of 0.5 w-% (of dry matter)
Group 4: basic fodder+product prepared from yeast by hydrolytic treatment, in an amount of 1.0 w-% (of dry matter).

[4] = group 2, basic fodder + 40 ppm Avilamysine

Cc1c(C(=O)NCCO)[n+]([O-])c2ccccc2[n+]1[O-] [Olaqvindox]
Additional growth ([1]; Olaqvindox 50 ppm in fodder): 255 g/day
Fodder efficiency kg/kg ([1]; Olaqvindox 50 ppm in fodder): 1.61 kg/kg
Final weight ([1]; Olaqvindox 50 ppm in fodder, initial weight 7.10 kg): 12.47 kg
Diarrhoea index ([1]; Olaqvindox 50 ppm, average, 1 = normal faeces, 2 = loose faeces, 3 = watery diarrhoea): 2.5
Treatments for diarrhoea, % of farrows ([1]; Olaqvindox 50 ppm, treated with an antibiotic or with zinc oxide because of diarrhoea): 100 % of farrows
Fodder efficiency kg/kg [2]: 2.07 kg/kg
Additional growth, g/day ([2]; initial weight 21.7 kg): 777^a g/day

Avilamysine
effect on growth and fodder consumption compared with the reference group ([3]; 40 ppm Avilamysine): increased the growth and fodder consumption effectively
ADG [3, 4]: 502 g/day
FCR kg fodder/kg Weight increase [3, 4]: 1.81 kg fodder/kg
Final weight ([3]; group 2, basic fodder + 40 ppm Avilamysine, starting weight 10.6 kg): 24.1 kg

Source: patent US20020061345A1, “PROCEDURE FOR PREPARING A FOOD ADDITIVE, AND AN ADDITIVE AND ITS USE” (priority 1996, published 2002)
